The text below walks through data of US20260309717A1, “PROXIMITY INDUCING SYSTEM AND USES THEREOF” (SORBONNE UNIVERSITE, priority 2022, published 2026).

The test has as its target T1, mCherry-^FIREtag / Lyn11-ECFP-^FIREmate (Halorhodospira halophila, UniProt P16113, A30V/C69G/D97P/F96I, form not given/G21E/G25R/K17N/M100R/M109L/Q41L/Q99S/S72T/T101G/V83A/Y94W/Y98T).
T1 construct: Lyn11-ECFP-FIREmate and mCherry-FIREtag in HEK293 cells
T1 sequence (P16113 1-114 A30V/C69G/D97P/F96I/G21E/G25R/K17N/M100R/M109L/Q41L/Q99S/S72T/T101G/V83A/Y94W/Y98T): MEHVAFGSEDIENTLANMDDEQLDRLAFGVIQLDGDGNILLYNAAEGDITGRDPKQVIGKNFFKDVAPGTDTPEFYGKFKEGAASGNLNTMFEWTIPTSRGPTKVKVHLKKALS
Put plainly: Recruitment of cytoplasmic protein to the plasma membrane, HEK293 cells. The test is classed as cell-based. The settings on record: 10 μM. Here is the method:
FIGS. 8A-E illustrate the recruitment of cytoplasmic proteins to the plasma membrane with the proximity inducing system described herein. FIG. 8A is a representation of the experimental design wherein HEK293 cells co-expressing mCherry-^FIREtag and Lyn11-ECFP-^FIREmate were treated with 10 μM of match (either HBR-2,5DM or HMBR), and imaged by time-lapse confocal microscopy. FIGS. 8B-C are graphs showing the temporal evolution of the FIRE signal detected upon addition at 0 min of HBR-2,5DM (match1-8B) or HMBR (match2-8C). Data represents the mean values±SD of 22 cells from n=3 independent experiments (8B, D), or of 30 cells from n=3 independent experiments (8C, E). FIGS. 8D-E are sets of representative confocal micrographs of cells before (0 min) and after (5 min) addition of HBR-2,5DM (match1-8D) or HMBR (match2-8E) (mCherry: ex/em 561/606-675 nm; FIRE: ex/em 488/508-570 nm; ECFP: ex/em 445/455-499 nm). […] Scale bars are 20 μm.
The confocal micrographs were acquired on a Zeiss LSM 980 Laser Scanning Microscope equipped with a plan apochromat 63x/1.4 NA oil immersion objective. ZEN software was used to collect the data. The images were analyzed using Icy (2.4.0.0) and Fiji (Image J). In short, to track fluorescence signal in a specific organelle, a ROI (region of interest) was determined by masking the signal in the ECFP (Enhanced Cyan Fluorescent Protein) channel with the plug-in HK-means with the following parameters: intensity class equals 100, minimum object size (pixels or px) equals 500, maximum object size (px) equals 1500-3000. The signal intensity of the ROI was tracked over time for each channel by using plug-in Active Contours. The background signal was subtracted. Data were processed using GraphPad Prism v9.3.0.
To further evaluate the scope of the proximity inducing system described herein and show its versatility, ^FIREmate was anchored at the membrane of various organelles or cellular structures so that ^FIREmate faced the cytosol. ^FIREmate was thus fused: • to the N-terminus of the transmembrane domain (amino acid residues at positions 3131-3259) of Giantin for location at the cis-medial rims of the Golgi apparatus (FIG. 6A), • to the N-terminus of the transmembrane domain (amino acid residues at positions 100-134) of the cytochrome b5 (Cb5) for location at the endoplasmic reticulum membrane (FIG. 7A), and • to the C-terminus of the Lyn11 inner membrane targeting sequence for location at the plasma membrane (FIG. 8A).
For each construct, an ECFP was inserted between ^FIREmate and the other protein domain/sequence to monitor the localization of the resulting fusion protein (blue fluorescence). Each fusion protein was co-expressed in mammalian cells (HeLa cells or HEK293 cells as indicated) together with mCherry-^FIREtag (red fluorescence). […]

Turning to `Cc1cc(/C=C2\SC(=S)NC2=O)c(C)cc1O` [HBR-2,5DM, (Z)-5-(4-hydroxy-2,5-dimethylbenzylidene)-2-thioxo-1,3-thiazolidin-4-one], the “FIRE signal at the plasma membrane” value is reported as “simultaneous appearance of green fluorescence” and the “translocation of mCherry-^FIREtag to the plasma membrane” value was “rapid translocation of mCherry-^FIREtag to the organelle”.
